Values of other authors as cited in PMC5600712 (ACS chemical biology, 2017).

Experiments:
proteasome = conditions: α,β-epoxyketone proteasome inhibitor
class I HDACs = conditions: class I compared with class II HDACs

In the case of `CC(C)C[C@H](NC(=O)[C@H](CCc1ccccc1)NC(=O)CN1CCOCC1)C(=O)N[C@@H](Cc1ccccc1)C(=O)N[C@@H](CC(C)C)C(=O)[C@@]1(C)CO1` [carfilzomib], the “covalent adduct formation with proteasome” value (proteasome) is given as “forms a covalent adduct to block proteasome function”.

In the case of HC toxin, the “selectivity of binding, class I versus class II HDACs” value (class I HDACs) is listed as “tighter binding of these inhibitors to class I HDACs”.
